Measured values from patent publication US20210169080A1, “HETEROCYCLE DERIVATIVES AS PESTICIDES” (Bayer Aktiengesellschaft, priority 2018, published 2021).

What was measured:
Myzus persicae [1] = assay: Myzus persicae oral test; assay type: in vivo; conditions: 4 ppm, oral uptake through parafilm, after 5 days
Description: [table] To produce a suitable active compound formulation, 1 part by weight of active compound is dissolved with the stated parts by weight of solvent and made up to the desired concentration with water. 50 μl of the active compound formulation are transferred into microtitre plates and made up to a final volume of 200 μl with 150 μl of IPL41 insect medium (33%+15% sugar). Subsequently, the plates are sealed with parafilm, which a mixed population of green peach aphids (Myzus persicae) within a second microtitre plate is able to puncture and imbibe the solution. After 5 days, the efficacy in % is determined. 100% means that all the aphids have been killed; 0% means that no aphids have been killed.

Spodoptera frugiperda = Spodoptera frugiperda spray test; assay type: in vivo; conditions: 100 g/ha, sprayed maize leaf discs, after 7 days
Description: (§1) [table] To produce a suitable active compound formulation, 1 part by weight of active compound is dissolved with the specified parts by weight of solvent and made up to the desired concentration with water containing an emulsifier concentration of 1000 ppm. To produce further test concentrations, the formulation is diluted with emulsifier-containing water. Leaf discs of maize (Zea mays) are sprayed with an active compound formulation of the desired concentration and, after drying, populated with caterpillars of the fall armyworm (Spodoptera frugiperda). After 7 days, the efficacy in % is determined. 100% means that all the caterpillars have been killed; 0% means that no caterpillar has been killed.

Ctenocephalides felis [2] = assay: Ctenocephalides felis oral test; assay type: in vivo; conditions: 100 ppm in citrated cattle blood, adult cat fleas, after 2 days
Description: Solvent: dimethyl sulfoxide To produce a suitable active compound formulation, 10 mg of active compound are mixed with 0.5 ml of dimethyl sulfoxide. Dilution with citrated cattle blood gives the desired concentration. About 20 unfed adult cat fleas (Ctenocephalides felis) are placed into a chamber which is closed at the top and bottom with gauze. A metal cylinder whose bottom end is closed with parafilm is placed onto the chamber. The cylinder contains the blood/active compound formulation, which can be imbibed by the fleas through the parafilm membrane. After 2 days, the kill in % is determined. 100% means that all of the fleas have been killed; 0% means that none of the fleas have been killed.

Phaedon cochleariae = Phaedon cochleariae spray test; assay type: in vivo; conditions: 100 g/ha, sprayed Chinese cabbage leaf discs, after 7 days
Description: as §1, with “water. Discs” for “water. Leaf discs”, “of Chinese cabbage leaves (Brassica pekinensis)” for “of maize (Zea mays)”, “with larvae” for “with caterpillars”, “the mustard beetle (Phaedon cochleariae).” for “the fall armyworm (Spodoptera frugiperda).”, “the beetle larvae” for “the caterpillars”, “no beetle larvae have” for “no caterpillar has”

[3] = log P by reversed-phase HPLC (EEC Directive 79/831 Annex V.A8), acidic method; assay type: physicochemical; conditions: HPLC on reversed-phase C18, acidic range, formic acid in water/acetonitrile; for chromatographic logP: reversed-phase C18 HPLC column
Description: The log P values were determined according to EEC Directive 79/831 Annex V.A8 by HPLC (high-performance liquid chromatography) on a reversed-phase column (C18) using the following methods: ^[a] […] Calibration was carried out using a homologous series of straight-chain alkan-2-ones (having 3 to 16 carbon atoms) with known log P values. The values between successive alkanones are determined by linear regression.

Myzus persicae [4] = assay: Myzus persicae spray test; assay type: in vivo; conditions: 100 g/ha, sprayed Chinese cabbage leaf discs, after 5 days
Description: as §1, with “Discs” for “Leaf discs”, “Chinese cabbage leaves (Brassica pekinensis) infested by all stages of the green peach aphid (Myzus persicae)” for “maize (Zea mays)”, “concentration.” for “concentration and, after drying, populated with caterpillars of the fall armyworm (Spodoptera frugiperda).”, “5” for “7”, “aphids” for “caterpillars”, “aphids have” for “caterpillar has”

Boophilus microplus = Boophilus microplus injection test; assay type: in vivo; conditions: 20 μg/animal injected into abdomen of engorged adult female cattle ticks, assessed after 7 days
Description: Solvent: dimethyl sulfoxide To produce a suitable active compound formulation, 10 mg of active compound are mixed with 0.5 ml of solvent and the concentrate is diluted to the desired concentration with solvent. 1 μl of the active compound solution is injected into the abdomen of 5 engorged adult female cattle ticks (Boophilus microplus). The animals are transferred into dishes and kept in a climate-controlled room. The activity is assessed after 7 days by laying of fertile eggs. Eggs which are not visibly fertile are stored in a climate-controlled cabinet until the larvae hatch after about 42 days. An efficacy of 100% means that none of the ticks has laid any fertile eggs; 0% means that all the eggs are fertile.

Ctenocephalides felis [5] = assay: Ctenocephalides felis in vitro contact test with adult cat fleas; assay type: in vivo; conditions: application rate 5 μg/cm^2 (=500 g/ha), after 48 h
Description: For the coating of the test tubes, 9 mg of active compound are first dissolved in 1 ml of acetone p.a. and then diluted to the desired concentration with acetone p.a. 250 μl of the solution are distributed homogeneously on the inner walls and the base of a 25 ml glass tube by turning and rocking on an orbital shaker (rocking rotation at 30 rpm for 2 h). With 900 ppm of active compound solution and internal surface area 44.7 cm^2, given homogeneous distribution, an area-based dose of 5 μg/cm^2 is achieved. After the solvent has evaporated off, the tubes are populated with 5-10 adult cat fleas (Ctenocephalides felis), sealed with a perforated plastic lid and incubated in a horizontal position at room temperature and ambient humidity. After 48 h, efficacy is determined. To this end, the tubes are stood upright and the fleas are knocked to the base of the tube. Fleas which remain motionless at the base or move in an uncoordinated manner are considered to be dead or moribund. […] 100% efficacy means that all the fleas were dead or moribund. 0% efficacy means that no fleas were harmed.

Rhipicephalus sanguineus = Rhipicephalus sanguineus in vitro contact test with adult brown dog ticks; assay type: in vivo; conditions: application rate 5 μg/cm^2 (=500 g ai/ha), after 48 h
Description: For the coating of the test tubes, 9 mg of active compound are first dissolved in 1 ml of acetone p.a. and then diluted to the desired concentration with acetone p.a. 250 μl of the solution are distributed homogeneously on the inner walls and the base of a 25 ml glass tube by turning and rocking on an orbital shaker (rocking rotation at 30 rpm for 2 h). With 900 ppm of active compound solution and internal surface area 44.7 cm^2, given homogeneous distribution, an area-based dose of 5 μg/cm^2 is achieved. After the solvent has evaporated off, the tubes are populated with 5-10 adult dog ticks (Rhipicephalus sanguineus), sealed with a perforated plastic lid and incubated in a horizontal position in the dark at room temperature and ambient humidity. After 48 h, efficacy is determined. To this end, the ticks are knocked to the base of the tube and incubated on a hotplate at 45-50° C. for not more than 5 min. Ticks which remain motionless on the base or move in such an uncoordinated manner that they are unable to deliberately avoid the heat by climbing upwards are considered to be dead or moribund. […] An efficacy of 100% means that all the ticks were dead or moribund. 0% efficacy means that none of the ticks were harmed.

Diabrotica balteata = Diabrotica balteata spray test; assay type: in vivo; conditions: 160 μg/cavity, germinated wheat corns infested with beetle larvae, after 7 days
Description: [table] To produce a suitable active compound formulation, 1 part by weight of active compound is dissolved with the specified parts by weight of solvent and made up to the desired concentration with water containing an emulsifier concentration of 1000 ppm. To produce further test concentrations, the formulation is diluted with emulsifier-containing water. Pre-swollen wheat corns (Triticum aestivum) are incubated for one day in a multiwell plate filled with agar and a little water (5 seed corns per cavity). The germinated wheat corns are sprayed with an active compound formulation of the desired concentration. Subsequently, each cavity is infested with 10-20 Diabrotica balteata beetle larvae. After 7 days, the efficacy in % is determined. 100% means that all wheat plants have grown as in the untreated uninfested control; 0% means that no wheat plant has grown.

SMILES	chromatographic logP [3]	log P (acidic) [3]	efficacy (aphids killed) (Myzus persicae [1]) [%]	efficacy (caterpillars killed) (Spodoptera frugiperda) [%]	efficacy (kill in %) (Ctenocephalides felis [2]) [%]	efficacy (beetle larvae killed) (Phaedon cochleariae) [%]	efficacy (aphids killed) (Myzus persicae [4]) [%]	efficacy (no laying of fertile eggs) (Boophilus microplus) [%]	efficacy (fleas dead or moribund) (Ctenocephalides felis [5]) [%]	efficacy (ticks dead or moribund) (Rhipicephalus sanguineus) [%]	efficacy (wheat plants grown as in uninfested control) (Diabrotica balteata) [%]
CCS(=O)(=O)c1c(-c2nc3cc(S(=O)(=O)C(F)(F)F)ccc3o2)nc2cc(C3(C#N)CC3)ccn12 [Example 1-1, 1-[3-(Ethylsulfonyl)-2-{5-[(trifluoromethyl)sulfonyl]-1,3-benzoxazol-2-yl}imidazo-[1,2-a]pyridin-7-yl]cyclopropanecarbonitrile]	3.18	–	100	100	95	100	–	–	–	–	–
CCS(=O)(=O)c1c(-c2nc3cc([S+]([O-])C(F)(F)F)ccc3o2)nc2cc(C3(C#N)CC3)ccn12 (stereo not shown) [Example 1-2, 1-[3-(ethylsulfonyl)-2-{5-[(trifluoromethyl)sulfinyl]-1,3-benzoxazol-2-yl}imidazo[1,2-a]pyridin-7-yl]cyclo-propanecarbonitrile]	2.67	–	100	100	100	100	100	–	–	–	–
CCS(=O)(=O)c1c(-c2nc3cc(SC(F)(F)F)ccc3o2)nc2cc(C3(C#N)CC3)ccn12 [Example 1-3, 1-[3-(Ethylsulfonyl)-2-{5-[(trifluoromethyl)sulfanyl]-1,3-benzoxazol-2-yl}imidazo-[1,2-a]pyridin-7-yl]cyclopropanecarbonitrile]	3.63	–	–	100	100	100	–	90	100	80	–

The next lines start with results.

chromatographic logP [3]	log P (acidic) [3]	SMILES	efficacy (aphids killed) (Myzus persicae [1]) [%]	efficacy (caterpillars killed) (Spodoptera frugiperda) [%]	efficacy (kill in %) (Ctenocephalides felis [2]) [%]	efficacy (beetle larvae killed) (Phaedon cochleariae) [%]	efficacy (aphids killed) (Myzus persicae [4]) [%]	efficacy (no laying of fertile eggs) (Boophilus microplus) [%]	efficacy (fleas dead or moribund) (Ctenocephalides felis [5]) [%]	efficacy (ticks dead or moribund) (Rhipicephalus sanguineus) [%]	efficacy (wheat plants grown as in uninfested control) (Diabrotica balteata) [%]
3.22	–	CCS(=O)(=O)c1c(-c2nc3cc(C(F)(F)F)ccc3o2)nc2cc(C3(C#N)CC3)ccn12 [Example 1-4]	–	100	–	100	–	–	–	–	–
3.29	–	CCS(=O)(=O)c1c(-c2nc3cc(OC(F)(F)F)ccc3o2)nc2cc(C3(C#N)CC3)ccn12 [Example 1-5, 1-[3-Ethylsulfonyl-2-[5-(trifluoromethoxy)-1,3-benzoxazol-2-yl]imidazo[1,2-a]pyridin-7-yl]cyclopropanecarbonitrile]	–	83	–	–	–	–	–	–	100
–	3.68	CCS(=O)(=O)c1c(-c2nc3cc(C(F)(F)C(F)(F)F)ccc3o2)nc2cc(C3(C#N)CC3)ccn12 [Example 1-6, 1-[3-Ethylsulfonyl-2-[5-(l, 1,2,2,2-pentafluoroethyl)-1,3-benzoxazol-2-yl]imidazo [1,2-a]pyridin-7-yl]cyclopropanecarbonitrile]	–	–	–	–	–	–	–	–	–
